Assay [1] deals with T1, serotonin 5-HT1A receptor (Rattus norvegicus, UniProt P19327).
T1 construct: serotonin 5-HT1A receptor, [^3H]-8-OH-DPAT, rat brain cortex; from tissue; host or cells: rat brain cortex
T1 sequence (P19327 1-422): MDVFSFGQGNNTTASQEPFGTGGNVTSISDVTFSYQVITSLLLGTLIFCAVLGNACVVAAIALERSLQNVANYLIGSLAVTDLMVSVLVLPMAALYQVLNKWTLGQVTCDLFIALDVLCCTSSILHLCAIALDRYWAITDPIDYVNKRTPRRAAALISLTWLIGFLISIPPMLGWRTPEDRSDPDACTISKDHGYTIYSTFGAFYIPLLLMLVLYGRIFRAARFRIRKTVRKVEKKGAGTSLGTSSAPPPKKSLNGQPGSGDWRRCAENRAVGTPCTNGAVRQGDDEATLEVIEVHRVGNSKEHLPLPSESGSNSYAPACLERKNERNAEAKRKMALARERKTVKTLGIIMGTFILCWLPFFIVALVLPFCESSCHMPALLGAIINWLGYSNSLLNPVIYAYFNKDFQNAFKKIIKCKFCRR
Description: radioligand binding assay, 5-HT1A, [3H]-8-OH-DPAT. The settings on record: rat brain cortex; read-out: Ki ± SD, 5-HT1A [3H]8OH-DPAT. As to the method:
(§1) All reactions were monitored by TLC, carried out on Merck 60G F254 plates with fluorescent indicator and the plates were visualized with UV light (254 nm). Each final compound and intermediate was purified by silica gel column chromatography (Macherey-Nagel 60 0,063–0,2 mm/70–230 mesh). […] Unless otherwise stated, all spectra were recorded in CDCl3. Chemical shifts are reported in ppm using Me4Si as internal standard. The following abbreviations are used to describe peak patterns when appropriate: s (singlet), d (doublet), t (triplet), m (multiplet), q (quartet), qt (quintet), dd (double doublet), ddd (double dd), bs (broad singlet). Mass spectra of the final products were performed on LTQ Orbitrap XL™ Fourier transform mass spectrometer (FTMS) equipped with ESI ION MAX™ source (Thermo Fisher, San José, USA). Melting points were determined using a Buchi B-540 hot-stage instrument and are uncorrected. […] All the compounds were dissolved in 5% DMSO. The following specific radioligands and tissue sources were used: (a)serotonin 5-HT1A receptor, [^3H]-8-OH-DPAT, rat brain cortex; (b) serotonin 5-HT2A receptor, [^3H]ketanserin, rat brain cortex; (c)serotonin 5-HT2C receptor, [^3H]mesulergine, rat brain cortex. Non-specific binding was determined as described in the experimental section, and specific binding as the difference between total and non-specific binding. […] The IC50 values obtained were used to calculate apparent inhibition constants (Ki) by the method of Cheng and Prussoff, from the following equation: Ki = IC50/(1 + S/KD) where S represents the concentration of the hot ligand used and KD its receptor dissociation constant (KD values, obtained by Scatchard analysis, were calculated for each labeled ligand). Radioligand binding assays for 5-HT1A were performed following a published procedure. 5-HT2A and 5-HT2C binding assays were performed reported by Herndon et al..

Assay [2] concerns MDA-MB231 cells. Description: MDA-MB231 cell viability, sulforhodamine B assay. Format: cell-based, human. The settings on record: for IC50: Homo sapiens, MDA-MB-231, 72 h treatment. Here is the method: (§2) MCF7 (ER^+, PR^+, HER2^−), SKBR3 (ER^−, PR^+, HER2^+) and MDA-MB231 (ER^−, PR^−, HER2^−) human BC cells and MCF10A non-cancer breast epithelial cells were available in our laboratory. MCF7, SKBR3 and MDA-MB231 cells were cultured in DMEM, supplemented with 10% FBS, 2 mM glutamine, 100 units/ml penicillin and 100 units/ml streptomycin. MCF10A cells were cultured in MEBM, supplemented with 0.4% BPE, 0.1% hEGF, 0.1%, Insulin, 0.1% Hydrocortisone and 0.1% GA-1000. […] Treatment with SER were carried out in culture conditions. Treatment with Tamoxifen and/or SER were carried out upon 48 h estrogen starvation in phenol-red free medium supplemented with 10% Charcoal Stripped (C/S) FBS, 2 mM glutamine, 100 units/ml penicillin and 100 units/ml streptomycin.
(§3) Cells were fixed with 50% trichloroacetic acid for at least 2 h at 4 °C, washed with distilled and de-ionized water, air-dryed and stained 30 min with 0.4% sulforhodamine B in 1% acetic acid. Unbound dye was removed and 10 mM tris-HCl solution (pH 7.5) was added to dissolve the protein-bound dye. Cell survival was assessed by optical density determination at 510 nm using a microplate reader.
Cell viability was assessed, after 72 h, by sulforhodamine B assay (see Methods).
A general note: The SRB assay estimates cell density from bound dye.

For assay [3], the system named is MCF7 cells. Briefly: MCF7 cell viability, sulforhodamine B assay. Format: cell-based, human. The following applies: for IC50: Homo sapiens, MCF7. As to the method:
as §2, §3
After 48 and 72 h, cell viability was assessed by sulforhodamine B assay (see Methods).

The target of assay [4] is T2, serotonin 5-HT2C receptor (Rattus norvegicus, UniProt P08909).
T2 construct: serotonin 5-HT2C receptor, [^3H]mesulergine, rat brain cortex; from tissue; host or cells: rat brain cortex
T2 sequence (P08909 33-460): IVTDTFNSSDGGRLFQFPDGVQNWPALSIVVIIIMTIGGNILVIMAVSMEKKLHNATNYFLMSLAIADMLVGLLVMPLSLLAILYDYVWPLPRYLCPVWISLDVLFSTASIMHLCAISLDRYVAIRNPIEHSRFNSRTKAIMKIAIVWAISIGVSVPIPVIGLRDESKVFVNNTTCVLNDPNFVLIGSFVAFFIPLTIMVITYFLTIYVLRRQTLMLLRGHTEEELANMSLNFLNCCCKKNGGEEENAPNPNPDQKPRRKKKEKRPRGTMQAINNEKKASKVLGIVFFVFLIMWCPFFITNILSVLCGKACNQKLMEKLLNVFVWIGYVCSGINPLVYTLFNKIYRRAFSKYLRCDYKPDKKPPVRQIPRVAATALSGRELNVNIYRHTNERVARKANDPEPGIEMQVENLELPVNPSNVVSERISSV
Description: radioligand binding assay, 5-HT2C, [3H]mesulergine. The settings on record: read-out: Ki ± SD, 5-HT2C [3H]Mesulergine. As to the method: as §1

Assay [5] addresses T3, serotonin 5-HT2A receptor (Rattus norvegicus, UniProt P14842).
T3 construct: serotonin 5-HT2A receptor, [^3H]ketanserin, rat brain cortex; from tissue; host or cells: rat brain cortex
Briefly: radioligand binding assay, 5-HT2A, [3H]ketanserin. The settings on record: rat brain cortex; read-out: Ki ± SD, 5-HT2A [3H]Ketanserin. Here is the method: as §1

Assay [6] concerns SKBR3 cells. Briefly: SKBR3 cell viability, sulforhodamine B assay. The assay is classed as cell-based, human. The following applies: for IC50: Homo sapiens, SK-BR-3, 72 h treatment. Here is the method: as §2, §3
Fig. 3 Effect of SER on SKBR3 cell viability. […] Cell viability was assessed, after 72 h, by sulforhodamine B assay (see Methods).

[7] abbreviates: 48 h treatment, read-out: IC50 MCF7 48h.
[8] abbreviates: 72 h treatment, read-out: IC50 MCF7.

Like-named read-outs stand apart in the source and are kept apart here. A value given as a limit tells only on which side of the number the result lay.

This is an account of results in PMC8845285, “Serotoninergic receptor ligands improve Tamoxifen effectiveness on breast cancer cells” (BMC Cancer, 2022).

T3 sequence (P14842 whole entry): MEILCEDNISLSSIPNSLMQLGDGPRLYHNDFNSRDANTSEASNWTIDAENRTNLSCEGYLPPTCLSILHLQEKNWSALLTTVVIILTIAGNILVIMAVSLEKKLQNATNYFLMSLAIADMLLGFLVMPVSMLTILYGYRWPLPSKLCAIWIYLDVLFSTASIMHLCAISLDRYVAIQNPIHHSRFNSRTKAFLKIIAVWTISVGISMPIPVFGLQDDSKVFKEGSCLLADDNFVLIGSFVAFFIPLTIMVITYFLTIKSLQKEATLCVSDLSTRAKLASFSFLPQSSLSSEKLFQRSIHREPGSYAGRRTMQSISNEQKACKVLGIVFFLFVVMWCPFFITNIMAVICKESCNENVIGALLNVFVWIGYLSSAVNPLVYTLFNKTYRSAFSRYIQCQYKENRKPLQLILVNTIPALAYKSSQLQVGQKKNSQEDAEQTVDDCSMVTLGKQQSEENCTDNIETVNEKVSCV

By Ki is commonly meant a dissociation constant, usually derived from enzyme kinetics or from competition with a known ligand. For orientation: IC50 means the concentration that gives 50% inhibition. On to `O=C(c1ccco1)N1CCN(CC(O)CON2C(=O)C3C4C=CC(C4)C3C2=O)CC1` (stereo not shown) [SER31, 4-[3-[4-(2-furoyl)piperazin-1-yl]propoxy-2-ol]-4-aza-tricyclo [5.2.1.02,6]dec-8-ene-3,5-dione], for which the results for the Ki in assay [1], in assay [4] (rat brain cortex) and in assay [5] were 1.05 ± 0.000231 µM, 0.00504 ± 0.000227 µM and over 10 µM, respectively. Moreover, in assay [2] (100 μM, 72 h), the “inhibition of MDA-MB231 cell growth” value was “able to inhibit”. Besides, the IC50 stood at 136 ± 38.6 µM in assay [2], 336 ± 153 µM in assay [3] (setting [7]), 99.2 ± 33 µM in assay [3] (setting [8]) and 100 ± 30.8 µM in assay [6].
For the compound `O=C(NCCN1CCN(c2cccc(C(F)(F)F)c2)CC1)c1ccccn1` [SER167], the values for the Ki in assay [1], in assay [4] and in assay [5] were 1.32 ± 0.012 µM, 0.14 ± 0.0025 µM and 0.0485 ± 0.0027 µM, respectively. Moreover, the IC50 in assay [2] amounted to 223 ± 154 µM; in assay [3] (setting [7]), 151 ± 41.6 µM; in assay [3] (setting [8]) it was 54.2 ± 10 µM; in assay [6], 152 ± 21.6 µM.
As for `O=C(NCCN1CCN(C(c2ccc(F)cc2)c2ccc(F)cc2)CC1)c1ccccn1` [SER177], the IC50 was 198 ± 66.7 µM in assay [2], 253 ± 65.6 µM in assay [3] (setting [7]), 66.6 ± 16.2 µM in assay [3] (setting [8]) and 43.3 ± 11.1 µM in assay [6]. Further, the Ki amounted to 0.0008 ± 5e-05 µM in assay [4] (rat brain cortex) and 0.218 ± 0.0093 µM in assay [5].
With `O=C(NCCCN1CCN(Cc2ccc3c(c2)OCO3)CC1)c1ccccn1` [SER195], the half-maximal inhibitory concentration (IC50) in assay [2] turned out to be 322 ± 118 µM; in assay [3] (setting [7]), 156 ± 36.1 µM; in assay [3] (setting [8]), 53.3 ± 8.29 µM; in assay [6], 150 ± 26 µM. In addition, the Ki in assay [5] was 0.0453 ± 0.0057 µM.
As to `O=C(NCCCN1CCN(C(=O)c2ccco2)CC1)c1ccccn1` [SER196], the half-inhibitory concentration (IC50) in assay [2] turned out to be 306 ± 65.8 µM; in assay [3] (setting [7]) it was 206 ± 50.7 µM; in assay [3] (setting [8]), 124 ± 31 µM; in assay [6], 202 ± 31.2 µM. For the same compound, the Ki in assay [5] stood at 0.00168 ± 0.0004 µM.
Regarding `O=C(NCCCN1CCN(C(c2ccc(F)cc2)c2ccc(F)cc2)CC1)c1ccccn1` [SER198], the values for the inhibitory constant (Ki) in assay [1], in assay [4] and in assay [5] were 0.0527 ± 0.0027 µM, 0.117 ± 0.0061 µM and 0.0778 ± 0.0021 µM, respectively. The IC50 in assay [2] was 91.3 ± 18.6 µM; in assay [3] (setting [7]), 106 ± 18.4 µM; in assay [3] (setting [8]), 10.2 ± 2.5 µM; in assay [6], 67.7 ± 8.02 µM. The “reduction of MCF7 cell viability” value in assay [3] (50 μM, 72 h) is on record as “≈ 70%”. For the same compound, the “reduction of SKBR3 cell viability” value in assay [6] (50 μM, 72 h) is reported as “≈ 50%”.
